From ChEMBL document CHEMBL1201862, “PubChem BioAssay data set” (2004)
Calls of active or inactive are those of the source.

Experiments:
Escherichia coli [1] = test: microbe, parasite or virus in culture
Escherichia coli [2] = test: microbe, parasite or virus in culture; remark: listed apart in the source
H9c2 = test: cells; type: functional, cell-based; settings: Rattus norvegicus, H9c2, Myocardium;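 further: confirmatory concentration-response retest of ultra-high-throughput screening hits for modulation of myocardial damage; cell death induced by hydrogen peroxide oxidative stress; compound pretreatment for 60 min then peroxide exposure for 2 h; potency is for protecting the cells against peroxide damage rather than for killing them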
[3] = cytotoxicity in MIN6 insulinoma cells, dose response, cytotoxicity control, cell-based, mouse insulinoma (AID 2122); type: functional;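 further: confirmatory high-throughput counterscreen run to flag cytotoxic compounds; mouse MIN-6 beta cells carrying an insulin promoter eGFP reporter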
[4] = Shn3 3'UTR reporter inhibitors, dose response, cell-based, Clone20 osteoblasts, firefly luciferase, cherry-picked (AID 624132); type: functional;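 further: firefly luciferase luminescence from reporter carrying the Shn3 3'UTR in osteoblasts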
[5] = insulin promoter down-regulators in MIN6 cells, imaging, high-content screening, mouse beta cells (AID 1628); type: functional
[6] = control 3'UTR Renilla luciferase suppression, dose response, counter-screen for Shn3 inhibitor project, cell-based, Clone20-Shn3RL, cherry-picked (AID 624133); type: functional
[7] = HepG2 cell cytotoxicity, dose response, cytotoxicity control for Shn3 inhibitor project, CellTiter-Glo, cherry-picked (AID 624134); type: functional, cell-based
CAAX prenyl protease 2 [8] = target: T1, CAAX prenyl protease 2 (Saccharomyces cerevisiae S288c, UniProt Q03530); type: biochemical
T1 sequence (Q03530 whole entry): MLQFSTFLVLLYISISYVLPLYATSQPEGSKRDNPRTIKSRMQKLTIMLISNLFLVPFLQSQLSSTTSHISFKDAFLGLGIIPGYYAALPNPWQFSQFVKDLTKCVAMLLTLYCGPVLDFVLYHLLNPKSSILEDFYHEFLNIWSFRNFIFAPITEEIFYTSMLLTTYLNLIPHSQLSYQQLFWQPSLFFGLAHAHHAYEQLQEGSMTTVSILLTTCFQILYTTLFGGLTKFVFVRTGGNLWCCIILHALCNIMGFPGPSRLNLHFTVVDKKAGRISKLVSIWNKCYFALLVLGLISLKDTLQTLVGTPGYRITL

CAAX prenyl protease 2 [9] = target: CAAX prenyl protease 2 (Homo sapiens, UniProt Q9Y256); test: human Rce1 protease inhibitors, dose response, biochemical, yeast membranes, quenched-peptide fluorescence, cherry-pick (AID 588849)
Sequence of CAAX prenyl protease 2 (Homo sapiens, UniProt Q9Y256) (Q9Y256 whole entry): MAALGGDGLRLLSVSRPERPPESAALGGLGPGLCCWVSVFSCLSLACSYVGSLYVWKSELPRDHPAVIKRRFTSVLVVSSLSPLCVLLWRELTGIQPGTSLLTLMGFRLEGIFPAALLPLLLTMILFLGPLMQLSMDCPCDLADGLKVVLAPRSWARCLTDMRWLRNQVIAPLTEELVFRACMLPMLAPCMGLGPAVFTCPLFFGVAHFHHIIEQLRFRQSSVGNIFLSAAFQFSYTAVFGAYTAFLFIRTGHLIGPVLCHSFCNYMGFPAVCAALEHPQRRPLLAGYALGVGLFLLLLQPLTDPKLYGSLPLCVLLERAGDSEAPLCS

Trypsin = Trypsin (Sus scrofa, UniProt P00761); test: porcine trypsin inhibitors, dose response, selectivity assay for Rce1 protease inhibitor project, biochemical, quenched peptide fluorescence, cherry-pick (AID 488789)
Sequence of Trypsin (P00761 whole entry): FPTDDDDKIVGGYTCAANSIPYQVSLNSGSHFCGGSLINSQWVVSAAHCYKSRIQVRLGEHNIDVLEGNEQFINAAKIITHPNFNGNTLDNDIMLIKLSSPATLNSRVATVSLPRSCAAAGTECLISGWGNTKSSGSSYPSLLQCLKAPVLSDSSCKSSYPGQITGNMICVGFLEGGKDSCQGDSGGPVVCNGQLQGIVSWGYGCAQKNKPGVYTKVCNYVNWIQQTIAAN

HEK293 [10] = test: cells; settings: Homo sapiens
Tumor necrosis factor = Tumor necrosis factor (Homo sapiens, UniProt P01375); test: TNFa-triggered NF-kB activation inhibitors, SAR follow-up, cell-based, revised (AID 2337); type: functional
Sequence of Tumor necrosis factor (P01375 whole entry): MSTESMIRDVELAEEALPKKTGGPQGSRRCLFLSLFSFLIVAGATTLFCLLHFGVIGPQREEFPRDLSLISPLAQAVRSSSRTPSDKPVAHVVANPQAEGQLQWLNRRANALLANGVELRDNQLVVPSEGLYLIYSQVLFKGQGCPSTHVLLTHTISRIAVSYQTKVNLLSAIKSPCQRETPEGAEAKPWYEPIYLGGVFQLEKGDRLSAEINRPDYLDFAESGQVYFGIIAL

HEK293 [11] = test: NOD1 signaling inhibitors, primary screen, cell-based, luminescence, uHTS (AID 1578); type: functional; settings: Homo sapiens
HEK293 [12] = test: cells; type: functional, cell-based; settings: Homo sapiens
[13] = target: Nucleotide-binding oligomerization domain-containing protein 1 (Homo sapiens, UniProt Q9Y239); test: NOD1 signaling inhibitors, SAR follow-up, revised (AID 2333); type: functional
Sequence of Nucleotide-binding oligomerization domain-containing protein 1 (Q9Y239 whole entry, the tested form may be a part): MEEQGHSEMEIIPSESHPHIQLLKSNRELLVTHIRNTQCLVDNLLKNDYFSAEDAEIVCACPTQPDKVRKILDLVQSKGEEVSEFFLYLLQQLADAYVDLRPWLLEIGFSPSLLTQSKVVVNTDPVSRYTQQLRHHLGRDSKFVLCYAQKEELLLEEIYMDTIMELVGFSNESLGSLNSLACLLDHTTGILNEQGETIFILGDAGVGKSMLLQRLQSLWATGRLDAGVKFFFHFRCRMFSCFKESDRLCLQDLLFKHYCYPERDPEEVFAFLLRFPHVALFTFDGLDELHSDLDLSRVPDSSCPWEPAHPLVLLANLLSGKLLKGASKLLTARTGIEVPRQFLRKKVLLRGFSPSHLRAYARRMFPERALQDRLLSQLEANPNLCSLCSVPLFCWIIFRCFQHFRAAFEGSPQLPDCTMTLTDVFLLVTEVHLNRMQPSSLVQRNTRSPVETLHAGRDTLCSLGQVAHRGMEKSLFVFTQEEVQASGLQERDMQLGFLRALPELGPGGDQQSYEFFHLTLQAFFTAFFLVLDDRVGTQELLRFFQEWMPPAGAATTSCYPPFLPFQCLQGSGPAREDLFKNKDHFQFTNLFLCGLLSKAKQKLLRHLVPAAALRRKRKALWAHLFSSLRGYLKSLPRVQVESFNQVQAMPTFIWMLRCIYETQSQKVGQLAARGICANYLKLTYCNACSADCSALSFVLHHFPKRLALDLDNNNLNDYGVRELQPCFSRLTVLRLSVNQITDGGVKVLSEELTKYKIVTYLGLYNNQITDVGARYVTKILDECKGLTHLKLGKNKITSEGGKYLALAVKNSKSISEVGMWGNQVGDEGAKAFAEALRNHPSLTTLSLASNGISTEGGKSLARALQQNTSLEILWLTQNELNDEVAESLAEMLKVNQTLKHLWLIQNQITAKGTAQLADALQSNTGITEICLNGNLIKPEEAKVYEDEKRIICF

HEK293 [14] = test: NOD2 signaling inhibitors in MDP-stimulated cells, cell-based, uHTS, luminescence (AID 2001); type: functional; settings: Homo sapiens
HEK293 [15] = test: cells; type: functional, cell-based; settings: Homo sapiens; remark: listed apart in the source
HEK293 [16] = test: cells; type: functional, cell-based; settings: Homo sapiens; remark: listed apart in the source
[17] = target: Nucleotide-binding oligomerization domain-containing protein 2 (Homo sapiens, UniProt Q9HC29); test: NOD2 signaling inhibitors, cell-based, luminescence, uHTS, HEK293 (AID 1566); type: functional
Sequence of Nucleotide-binding oligomerization domain-containing protein 2 (Q9HC29 whole entry, the tested form may be a part): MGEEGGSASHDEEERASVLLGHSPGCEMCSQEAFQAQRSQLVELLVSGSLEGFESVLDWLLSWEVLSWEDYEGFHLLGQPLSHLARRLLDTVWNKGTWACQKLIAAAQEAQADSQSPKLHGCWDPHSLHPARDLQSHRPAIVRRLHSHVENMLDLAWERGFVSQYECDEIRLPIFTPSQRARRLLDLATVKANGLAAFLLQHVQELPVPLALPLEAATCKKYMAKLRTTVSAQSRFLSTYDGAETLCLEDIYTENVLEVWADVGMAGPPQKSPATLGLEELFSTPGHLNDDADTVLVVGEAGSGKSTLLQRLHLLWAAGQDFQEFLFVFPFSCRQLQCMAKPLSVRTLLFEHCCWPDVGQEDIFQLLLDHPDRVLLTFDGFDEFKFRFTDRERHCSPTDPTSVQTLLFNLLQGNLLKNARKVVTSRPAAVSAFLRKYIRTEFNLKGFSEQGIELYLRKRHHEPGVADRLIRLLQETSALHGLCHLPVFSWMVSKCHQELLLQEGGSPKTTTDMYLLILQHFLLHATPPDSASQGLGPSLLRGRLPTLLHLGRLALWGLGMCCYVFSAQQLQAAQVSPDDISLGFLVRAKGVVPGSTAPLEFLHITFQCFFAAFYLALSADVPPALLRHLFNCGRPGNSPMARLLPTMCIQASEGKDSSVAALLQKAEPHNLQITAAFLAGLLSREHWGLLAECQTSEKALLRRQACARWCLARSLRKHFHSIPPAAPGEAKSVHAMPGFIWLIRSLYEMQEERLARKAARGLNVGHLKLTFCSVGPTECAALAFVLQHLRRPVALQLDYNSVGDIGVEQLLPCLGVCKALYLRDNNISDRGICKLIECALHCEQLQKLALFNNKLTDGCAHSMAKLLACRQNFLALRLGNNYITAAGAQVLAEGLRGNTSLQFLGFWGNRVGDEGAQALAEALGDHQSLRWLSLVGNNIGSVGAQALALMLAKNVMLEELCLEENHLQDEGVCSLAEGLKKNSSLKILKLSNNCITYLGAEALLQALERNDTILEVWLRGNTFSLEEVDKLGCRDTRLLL

CC(C)(C)NC(=O)c1nn(Cc2ccccc2)c(=O)c2ccccc12
AC50 (Escherichia coli [1]): 53.2 µM (active)
AC50 (Escherichia coli [2]): 29.1 µM (active)

COc1cccc(-c2nn3c(-c4ccccn4)nnc3s2)c1
AC50 (Escherichia coli [1]): 192 µM (active)
IC50 (H9c2): 16.5 µM (active)

Cc1cc2nc(C)n(CCCNC(=O)Nc3cccc4ccccc34)c2cc1C
IC50 [3]: 1.99 µM (active)
AC50 [4]: 3.19 µM (active)
IC50 [5]: 1.7 µM (active)
AC50 [6]: 6.38 µM (active)
AC50 [7]: 28.5 µM (active)

CN1c2ccccc2-c2nc3ccccc3n2C1c1cccs1 (stereo unspecified)
AC50 (CAAX prenyl protease 2 [8]): 4.28 µM (active)
AC50 (CAAX prenyl protease 2 [9]): 0.769 µM (active)
AC50 (Trypsin): 0.989 µM (active)

Cc1onc(-c2ccccc2)c1C(=O)Nc1ncc([N+](=O)[O-])s1
IC50 (HEK293 [10]): 18 µM (active)
IC50 (Tumor necrosis factor): 6.31 µM (active)
EC50 (HEK293 [11]): 2.25 µM (active)
IC50 (HEK293 [12]): 15.8 µM (active)
IC50 [13]: 4.88 µM (active)
IC50 (HEK293 [14]): 8.73 µM (active)
IC50 (HEK293 [15]): > 20 µM (inactive)
IC50 (HEK293 [16]): > 20 µM (inactive)
EC50 [17]: 2.62 µM (active)
